# Experimental data from the supplement of paper PMC10307832.
# Columns and labels:
# Experiment in all cases: relative viability (nuclei count vs DMSO), 5 days (fraction); higher = more cells survive
# [1] = compound: CCN(CC)CCNC(=O)c1c(C)[nH]c(/C=C2\C(=O)Nc3ccc(F)cc32)c1C [Sunitinib]
# Outline: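 A plate was accepted only when its control CV was below 25% and the cells had doubled at least once. Viability is defined from nuclear counts as treated wells divided by vehicle wells, with the median taken across plates. That median covers lung cancer cell lines grown in 1536-well plates, dosed by pinning at five √10-spaced library-drug concentrations, and counted in MetaXpress from 4× Hoechst images after 5 days.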
# [2] = compound: CCN(CC)CCNC(=O)c1c(C)[nH]c(/C=C2\C(=O)Nc3ccc(F)cc32)c1C [Sunitinib] + CC(=O)c1c(C)c2cnc(Nc3ccc(N4CCNCC4)cn3)nc2n(C2CCCC2)c1=O [Palbociclib] (partner 0.5 µM)
# Outline: (§1)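 Cells from lung cancer lines were seeded into 1536-well plates and, one day later, dosed by pin tool. Treatments were either a single drug or a fixed dose of an anchor drug with five library-drug doses (not always all listed) in √10 steps. After 5 days, nuclei were stained in a one-step fixation (final 0.05% Triton X-100, 1% formaldehyde, 1 ug/ml Hoechst) and counted on 4× images, and relative viability is the treated-to-vehicle nuclei ratio, as the median of duplicate plates.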
# [3] = compound: CCN(CC)CCNC(=O)c1c(C)[nH]c(/C=C2\C(=O)Nc3ccc(F)cc32)c1C [Sunitinib] + COc1cc2c(Oc3ccc(NC(=O)C4(C(=O)Nc5ccc(F)cc5)CC4)cc3F)ccnc2cc1OCCCN1CCOCC1 [Foretinib] (partner 0.25 µM)
# Outline: as §1
# [4] = compound: CCN(CC)CCNC(=O)c1c(C)[nH]c(/C=C2\C(=O)Nc3ccc(F)cc32)c1C [Sunitinib] + COc1cccc2cc(-c3nc([C@H]4CC[C@H](C(=O)O)CC4)n4ncnc(N)c34)[nH]c12 [OSI-027] (partner 0.5 µM)
# Outline: as §1
cell line,measurement,setting,value
NCI-H2085,relative viability,[1]; 0.02 µM,0.999
same,relative viability,[1]; 0.06325 µM,1.04
same,relative viability,[1]; 0.2 µM,1.01
same,relative viability,[1]; 0.6325 µM,1.03
same,relative viability,[1]; 2 µM,1.04
same,relative viability,[2]; first compound 0.02 µM,0.454
same,relative viability,[2]; first compound 0.06325 µM,0.5
same,relative viability,[2]; first compound 0.2 µM,0.472
same,relative viability,[2]; first compound 0.6325 µM,0.494
same,relative viability,[2]; first compound 2 µM,0.494
same,relative viability,[3]; first compound 0.02 µM,0.851
same,relative viability,[3]; first compound 0.2 µM,1.02
same,relative viability,[3]; first compound 0.6325 µM,0.957
same,relative viability,[3]; first compound 2 µM,0.935
same,relative viability,[4]; first compound 0.02 µM,0.761
same,relative viability,[4]; first compound 0.06325 µM,0.768
same,relative viability,[4]; first compound 0.2 µM,0.73
same,relative viability,[4]; first compound 0.6325 µM,0.96
same,relative viability,[4]; first compound 2 µM,1.06
NCI-H2087,relative viability,[1]; 0.02 µM,1.16
same,relative viability,[1]; 0.06325 µM,1.25
same,relative viability,[1]; 0.2 µM,1.13
same,relative viability,[1]; 0.6325 µM,1.1
same,relative viability,[1]; 2 µM,1.11
same,relative viability,[2]; first compound 0.02 µM,0.27
same,relative viability,[2]; first compound 0.06325 µM,0.266
same,relative viability,[2]; first compound 0.2 µM,0.25
same,relative viability,[2]; first compound 0.6325 µM,0.28
same,relative viability,[2]; first compound 2 µM,0.255
same,relative viability,[3]; first compound 0.02 µM,1.12
same,relative viability,[3]; first compound 0.06325 µM,1.28
same,relative viability,[3]; first compound 0.2 µM,1.15
same,relative viability,[3]; first compound 0.6325 µM,1.07
same,relative viability,[3]; first compound 2 µM,1.11
same,relative viability,[4]; first compound 0.02 µM,0.423
same,relative viability,[4]; first compound 0.06325 µM,0.755
same,relative viability,[4]; first compound 0.2 µM,0.636
same,relative viability,[4]; first compound 0.6325 µM,0.577
same,relative viability,[4]; first compound 2 µM,0.449
NCI-H2126,relative viability,[1]; 0.02 µM,0.946
same,relative viability,[1]; 0.06325 µM,1.06
same,relative viability,[1]; 0.2 µM,1.04
same,relative viability,[1]; 0.6325 µM,1.04
same,relative viability,[1]; 2 µM,1.03
same,relative viability,[2]; first compound 0.02 µM,0.341
same,relative viability,[2]; first compound 0.06325 µM,0.36
same,relative viability,[2]; first compound 0.2 µM,0.37
same,relative viability,[2]; first compound 0.6325 µM,0.338
same,relative viability,[2]; first compound 2 µM,0.359
same,relative viability,[3]; first compound 0.02 µM,1.13
same,relative viability,[3]; first compound 0.06325 µM,1.31
same,relative viability,[3]; first compound 0.2 µM,1.34
same,relative viability,[3]; first compound 0.6325 µM,1.47
same,relative viability,[3]; first compound 2 µM,1.31
same,relative viability,[4]; first compound 0.02 µM,0.738
same,relative viability,[4]; first compound 0.06325 µM,0.665
same,relative viability,[4]; first compound 0.2 µM,0.988
same,relative viability,[4]; first compound 0.6325 µM,0.773
same,relative viability,[4]; first compound 2 µM,0.672
NCI-H2170,relative viability,[1]; 0.02 µM,0.909
same,relative viability,[1]; 0.06325 µM,0.993
same,relative viability,[1]; 0.2 µM,1.05
same,relative viability,[1]; 0.6325 µM,0.953
same,relative viability,[1]; 2 µM,0.959
same,relative viability,[2]; first compound 0.02 µM,0.392
same,relative viability,[2]; first compound 0.06325 µM,0.376
same,relative viability,[2]; first compound 0.2 µM,0.422
same,relative viability,[2]; first compound 0.6325 µM,0.379
same,relative viability,[2]; first compound 2 µM,0.421
same,relative viability,[3]; first compound 0.02 µM,0.987
same,relative viability,[3]; first compound 0.06325 µM,1.01
same,relative viability,[3]; first compound 0.2 µM,1.05
same,relative viability,[3]; first compound 0.6325 µM,1.01
same,relative viability,[3]; first compound 2 µM,0.843
same,relative viability,[4]; first compound 0.02 µM,0.746
same,relative viability,[4]; first compound 0.06325 µM,0.687
same,relative viability,[4]; first compound 0.2 µM,0.802
same,relative viability,[4]; first compound 0.6325 µM,0.737
same,relative viability,[4]; first compound 2 µM,0.576
NCI-H2228,relative viability,[1]; 0.02 µM,1.02
same,relative viability,[1]; 0.06325 µM,1.21
same,relative viability,[1]; 0.2 µM,1.07
same,relative viability,[1]; 0.6325 µM,0.973
same,relative viability,[1]; 2 µM,0.962
same,relative viability,[2]; first compound 0.02 µM,0.829
same,relative viability,[2]; first compound 0.06325 µM,0.942
same,relative viability,[2]; first compound 0.2 µM,1.15
same,relative viability,[2]; first compound 0.6325 µM,1.16
same,relative viability,[2]; first compound 2 µM,0.693
same,relative viability,[3]; first compound 0.02 µM,0.844
same,relative viability,[3]; first compound 0.06325 µM,0.833
same,relative viability,[3]; first compound 0.2 µM,0.963
same,relative viability,[3]; first compound 0.6325 µM,0.842
same,relative viability,[3]; first compound 2 µM,0.657
same,relative viability,[4]; first compound 0.02 µM,0.523
same,relative viability,[4]; first compound 0.06325 µM,0.658
same,relative viability,[4]; first compound 0.2 µM,0.625
same,relative viability,[4]; first compound 0.6325 µM,0.529
same,relative viability,[4]; first compound 2 µM,0.411
NCI-H2342,relative viability,[1]; 0.02 µM,0.96
same,relative viability,[1]; 0.06325 µM,1.09
same,relative viability,[1]; 0.2 µM,1.03
same,relative viability,[1]; 0.6325 µM,1.01
same,relative viability,[1]; 2 µM,1.11
same,relative viability,[2]; first compound 0.02 µM,0.446
same,relative viability,[2]; first compound 0.06325 µM,0.541
same,relative viability,[2]; first compound 0.2 µM,0.566
same,relative viability,[2]; first compound 0.6325 µM,0.549
same,relative viability,[2]; first compound 2 µM,0.579
same,relative viability,[3]; first compound 0.02 µM,0.901
same,relative viability,[3]; first compound 0.06325 µM,1.17
same,relative viability,[3]; first compound 0.2 µM,1.15
same,relative viability,[3]; first compound 0.6325 µM,1.18
same,relative viability,[3]; first compound 2 µM,1.16
same,relative viability,[4]; first compound 0.02 µM,0.663
same,relative viability,[4]; first compound 0.06325 µM,0.657
same,relative viability,[4]; first compound 0.2 µM,0.589
same,relative viability,[4]; first compound 0.6325 µM,0.675
same,relative viability,[4]; first compound 2 µM,0.703
NCI-H2347,relative viability,[1]; 0.02 µM,1.01
same,relative viability,[1]; 0.06325 µM,1.08
same,relative viability,[1]; 0.2 µM,1.1
same,relative viability,[1]; 0.6325 µM,1.04
same,relative viability,[1]; 2 µM,1.18
same,relative viability,[2]; first compound 0.02 µM,0.454
same,relative viability,[2]; first compound 0.06325 µM,0.43
same,relative viability,[2]; first compound 0.2 µM,0.453
same,relative viability,[2]; first compound 0.6325 µM,0.422
same,relative viability,[2]; first compound 2 µM,0.472
same,relative viability,[3]; first compound 0.02 µM,0.704
same,relative viability,[3]; first compound 0.06325 µM,0.708
same,relative viability,[3]; first compound 0.2 µM,1.03
same,relative viability,[3]; first compound 2 µM,1.36
same,relative viability,[4]; first compound 0.02 µM,0.451
same,relative viability,[4]; first compound 0.06325 µM,0.507
same,relative viability,[4]; first compound 0.2 µM,0.67
same,relative viability,[4]; first compound 0.6325 µM,0.384
same,relative viability,[4]; first compound 2 µM,0.552
NCI-H2405,relative viability,[1]; 0.02 µM,1.01
same,relative viability,[1]; 0.06325 µM,1.06
same,relative viability,[1]; 0.2 µM,1.05
same,relative viability,[1]; 0.6325 µM,1.07
same,relative viability,[1]; 2 µM,1.01
same,relative viability,[2]; first compound 0.02 µM,0.495
same,relative viability,[2]; first compound 0.06325 µM,0.581
same,relative viability,[2]; first compound 0.2 µM,0.546
same,relative viability,[2]; first compound 0.6325 µM,0.494
same,relative viability,[2]; first compound 2 µM,0.587
same,relative viability,[3]; first compound 0.02 µM,1.07
same,relative viability,[3]; first compound 0.06325 µM,1.06
same,relative viability,[3]; first compound 0.2 µM,1.09
same,relative viability,[3]; first compound 0.6325 µM,1.05
same,relative viability,[3]; first compound 2 µM,1.11
same,relative viability,[4]; first compound 0.02 µM,0.647
same,relative viability,[4]; first compound 0.06325 µM,0.643
same,relative viability,[4]; first compound 0.2 µM,0.631
same,relative viability,[4]; first compound 0.6325 µM,0.65
same,relative viability,[4]; first compound 2 µM,0.673
